Laboratory results reported in patent US20250152591A1, “TREATMENT OF HEMATOLOGICAL MALIGNANCIES WITH MENIN INHIBITORS AND P-GLYCOPROTEIN INHIBITORS” (Kura Oncology, Inc., priority 2022, published 2025).
Like-named read-outs stand apart in the source and are kept apart here.

Columns and labels:
[1] = system: MV4;11-Control cell line; test: CellTiter-Glo cell viability assay, MV4;11-Control; type: cell-based; parameters: unit of the concentration uncertain
Method: The influence of efflux pumps on the antitumor activity of the test compounds at steady state (more clinically relevant) were evaluated using P-gp-transfected AML cells (MV4;11 cells) in 6-day viability assays.
A P-gp-expressing KMT2A(MLL)-rearranged cell line model was developed by lentiviral transduction of the MV4;11 parental cell line and then selection for either Luciferase ORF (MV4;11-Control) or P-gp ORF (MV4;11-PGP).
[…] Cell viability was measured by CellTiter-Glo® Luminescent Cell Viability Assay (CTG assay, Promega Corp.) and % Viability was quantified by normalizing to the luminescence values of DMSO-only treated cells. The dose-response curves and IC50's were calculated using GraphPad Prism 9.4.1.
The measured luminescence in the live cells of the MV4;11-Control and MV4;11-PGP cells that were treated with Compound I only (+DMSO), Compound I+posaconazole […], and valspodar (1 mM) are shown in FIGS. 5A and 5B.
In a second set of experiments, MV4;11-Control and MV4;11-PGP cell lines were treated as described above with five menin inhibitors, including Compound I, SNDX-5613, Compound A, Compound B, and Compound C, at concentrations ranging from 0 to 1000 nM. All tested compounds dropped in potency due to the P-gp expression as shown in FIGS. 6A-6J and in Tables 5 and 6 (indicated by increased IC50 values between “MV4;11-Control (Compound+DMSO)” and “MV4;11-PGP (Compound+DMSO)” entries).

[2] = system: MOLM13-Control cell line; test: Cell viability assay, MOLM13-Control; type: cell-based; parameters: unit of the concentration uncertain; settings: 168 h, 7 days
Method: The effects described above were investigated in an AML cell line, MOLM-13, which carries a KA4T2A (MLL)-rearrangement mutation. The P-gp expressing MOLM-13 cell line (MOLM13-PGP) and the Luciferase expressing MOLM-13 cell line (MOLM13-Control) were established by lentivirally transducing P-gp ORF or Luciferase ORF. Cells were plated and treated with test compound for 7 days.

[3] = system: OCI-AML3-Control cell line; test: Cell viability assay, OCI-AML3-Control; type: cell-based; parameters: unit of the concentration uncertain; settings: 168 h, 7 days
Method: A third set of experiments was conducted in the cell line OCI-AML3, which carries the W288Cfs*12 mutation in NPM protein. The P-gp expressing OCI-AML3 cell line (OCI-AML3-PGP) and the Luciferase expressing OC-AML3 cell line (OCI-AML3-Control) were established by lentivirally transducing P-gp ORF or Luciferase ORF. Cells were treated with Compound I or SNDX-5613 for 7 days to assess the IC50 values.

[4] = target: P-gp (Homo sapiens, UniProt P08183); test: P-gp substrate assessment using MDR1-MDCK monolayers (Example 1, +/- valspodar); type: in vitro ADME; parameters: expressed in transfected cells; host or cells: MDR1-MDCK cells
Chain of P-gp (P08183 whole entry): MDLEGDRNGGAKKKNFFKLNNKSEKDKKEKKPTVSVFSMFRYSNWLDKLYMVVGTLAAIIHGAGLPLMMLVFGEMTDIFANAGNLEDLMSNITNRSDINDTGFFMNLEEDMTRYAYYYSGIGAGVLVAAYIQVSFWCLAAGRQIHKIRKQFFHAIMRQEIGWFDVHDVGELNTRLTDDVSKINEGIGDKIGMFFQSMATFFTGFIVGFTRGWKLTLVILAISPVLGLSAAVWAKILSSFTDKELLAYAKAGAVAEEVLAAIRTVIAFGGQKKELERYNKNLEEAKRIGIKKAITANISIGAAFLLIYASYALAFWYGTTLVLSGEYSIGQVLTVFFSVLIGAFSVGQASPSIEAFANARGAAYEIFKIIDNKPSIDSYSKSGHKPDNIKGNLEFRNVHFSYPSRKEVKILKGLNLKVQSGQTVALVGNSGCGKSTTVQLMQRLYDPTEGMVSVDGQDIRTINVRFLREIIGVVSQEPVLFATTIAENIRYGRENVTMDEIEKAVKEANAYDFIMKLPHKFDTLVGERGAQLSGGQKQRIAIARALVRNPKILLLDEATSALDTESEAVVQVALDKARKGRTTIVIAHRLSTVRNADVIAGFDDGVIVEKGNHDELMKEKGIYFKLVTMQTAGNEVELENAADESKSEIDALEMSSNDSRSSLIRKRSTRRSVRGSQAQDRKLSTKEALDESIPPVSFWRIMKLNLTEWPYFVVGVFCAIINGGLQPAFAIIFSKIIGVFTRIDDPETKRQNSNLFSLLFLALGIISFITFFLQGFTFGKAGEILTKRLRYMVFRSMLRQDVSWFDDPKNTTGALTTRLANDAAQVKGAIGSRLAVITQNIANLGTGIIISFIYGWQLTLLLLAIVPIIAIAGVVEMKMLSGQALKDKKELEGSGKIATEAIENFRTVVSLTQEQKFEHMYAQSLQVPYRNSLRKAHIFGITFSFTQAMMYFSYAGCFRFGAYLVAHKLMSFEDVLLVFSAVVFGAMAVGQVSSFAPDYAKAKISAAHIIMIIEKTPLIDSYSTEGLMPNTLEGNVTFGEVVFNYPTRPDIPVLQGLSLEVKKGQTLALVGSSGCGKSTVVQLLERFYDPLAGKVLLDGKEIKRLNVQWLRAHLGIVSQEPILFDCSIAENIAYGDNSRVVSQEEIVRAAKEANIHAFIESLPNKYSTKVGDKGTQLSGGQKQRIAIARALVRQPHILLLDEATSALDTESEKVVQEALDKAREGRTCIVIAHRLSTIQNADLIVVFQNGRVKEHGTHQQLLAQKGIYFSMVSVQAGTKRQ
Method: MDR1-MDCK cell monolayers were grown to confluence on collagen-coated, microporous membranes in 12-well assay plates. Details of the plates and their certification are shown below. The permeability assay buffer was Hanks' balanced salt solution (HBSS) containing 10 mM HEPES and 15 mM glucose at a pH of 7.4. The buffer in the receiver chamber also contained 1% bovine serum albumin. The dosing solution concentration was 5 μM of test article in the assay buffer+/−1 μM valspodar. Cells were first pre-incubated for 30 min with HBSS containing+/−1 μM valspodar. Cell monolayers were dosed on the apical side (A-to-B) or basolateral side (B-to-A) and incubated at 37° C. with 5% CO2 in a humidified incubator. Samples were taken from the donor and receiver chambers at 120 min. Each determination was performed in duplicate. The flux of lucifer yellow was also measured post-experimentally for each monolayer to ensure no damage was inflicted to the cell monolayers during the flux period. All samples were assayed by LC-MS/MS using electrospray ionization. Liquid chromatography conditions are summarized as follows: Column: Thermo BDS Hypersil C18 30×2.1 mm, […], with guard column; M.P. Buffer: 25 mM ammonium formate buffer, pH 3.5; Aqueous Reservoir (A): 90% water, 10% buffer; Organic Reservoir (B): 90% acetonitrile, 10% buffer; Flow Rate: 350 μL/minute; Total run time: 3.5 min; Autosampler: 10 μL injection volume; Autosampler wash: water/methanol/2-propanol: 1/1/1; with 0.2% formic acid.
The apparent permeability (Papp) and percent recovery were calculated as follows: […]
where, • dCr/dt is the slope of the cumulative concentration in the receiver compartment versus time in μM s^−1; • Vr is the volume of the receiver compartment in cm^3; • Vd is the volume of the donor compartment in cm^3; • A is the area of the insert (1.13 cm^2 for 12-well); • CA is the average of the nominal dosing concentration and the measured 120 minute donor concentration in μM; • CN is the nominal concentration of the dosing solution in μM; • Cr^final is the cumulative receiver concentration in μM at the end of the incubation period; • Cd^final is the concentration of the donor in μM at the end of the incubation period.
Efflux ratio (ER) is defined as Papp (B-to-A)/Papp (A-to-B).
• ER≥2.0 without valspodar, and reduced by ≥50% with valspodar: Positive • ER≥2.0 without valspodar, and reduced by <50% with valspodar: Negative • ER<2.0 without and with valspodar: Negative

CNc1nc(NC2CCN(Cc3ccc4c(cc(C#N)n4C[C@H](C)N4CCN(S(C)(=O)=O)CC4)c3C)CC2)c2cc(CC(F)(F)F)sc2n1 [Compound I]
IC50 ([1]; 120 h, MV4;11-Control, 5 days, Table 4, read-out: IC50 (Compound I + DMSO)): 7.2 nM
IC50 ([1]; 120 h, MV4;11-Control, posaconazole (1.5 μM), 5 days, Table 4, read-out: IC50 (Compound I + Posaconazole)): 3.8 nM
IC50 ([1]; 120 h, MV4;11-Control, valspodar (1 μM), 5 days, Table 4, read-out: IC50 (Compound I + Valspodar)): 6.1 nM
IC50 ([1]; 144 h, Compound I only, 0 to 1000 nM, 6 days, Table 3, read-out: IC50 MV4;11-Control): 7.6 nM
IC50 ([1]; 144 h, second set of experiments, 0 to 1000 nM, Table 5, read-out: IC50 MV4;11-Control (Compound + DMSO)): 6.05 nM
IC50 ([1]; 144 h, second set of experiments, 0 to 1000 nM, Table 6, read-out: IC50 MV4;11-Control (Compound + DMSO)): 6.14 nM
IC50 ([1]; second set of experiments, posaconazole (1.5 (unit uncertain)), Table 5, read-out: IC50 MV4;11-Control (Compound + posaconazole)): 3.76 nM
IC50 ([1]; second set of experiments, valspodar (1 (unit uncertain)), Table 6, read-out: IC50 MV4;11-Control (Compound + valspodar)): 4.84 nM
IC50 ([2]; Table 7, read-out: IC50 MOLM13-Control (Compound + DMSO)): 23.7 nM
IC50 ([2]; Table 8, read-out: IC50 MOLM13-Control (compound + DMSO)): 27 nM
IC50 ([2]; posaconazole (1.5 (unit uncertain)), Table 7, read-out: IC50 MOLM13-Control (Compound + posaconazole)): 16.5 nM
IC50 ([2]; valspodar (1 (unit uncertain)), Table 8, read-out: IC50 MOLM13-Control (Compound + valspodar)): 22.3 nM
IC50 ([3]; Table 9, read-out: IC50 OCI-AML3-Control (Compound + DMSO)): 16.4 nM
IC50 ([3]; Table 10, read-out: IC50 OCI-AML3-Control (Compound + DMSO)): 15.3 nM
IC50 ([3]; posaconazole (0.75 (unit uncertain)), Table 9, read-out: IC50 OCI-AML3-Control (Compound + posaconazole)): 17.7 nM
IC50 ([3]; valspodar (1 (unit uncertain)), Table 10, read-out: IC50 OCI-AML3-Control (Compound + valspodar)): 19.2 nM
Papp Avg ([4]; A-to-B, without valspodar): 0.09 10^−6 cm/s
P-gp substrate ([4]; MDR1-MDCK cell monolayers): substrate of P-gp
P-gp Substrate Classification ([4]; MDR1-MDCK, ER without and with valspodar): Positive (ER≥2.0 without valspodar, and reduced by ≥50% with valspodar)
recovery at 120 min, 5 μM ([4]; dog, MDCK-MDR1, pH 7.4, A-to-B, 5 μM test article, without valspodar): 70%
recovery at 120 min, 5 μM ([4]; dog, MDCK-MDR1, pH 7.4, B-to-A, 5 μM test article, without valspodar): 83%
Papp B→A at 120 min, 5 μM ([4]; dog, MDCK-MDR1, pH 7.4, B-to-A, without valspodar, read-out: Papp Avg): 9.41 ×10⁻⁶ cm/s
Papp B→A at 120 min, 5 μM ([4]; dog, MDCK-MDR1, pH 7.4, B-to-A, without valspodar, read-out: Papp R1): 6.43 ×10⁻⁶ cm/s
Papp B→A at 120 min, 5 μM ([4]; dog, MDCK-MDR1, pH 7.4, B-to-A, without valspodar, read-out: Papp R2): 9.21 ×10⁻⁶ cm/s
Papp B→A at 120 min, 5 μM ([4]; dog, MDCK-MDR1, pH 7.4, B-to-A, without valspodar, read-out: Papp R3): 12.6 ×10⁻⁶ cm/s
recovery at 120 min, 5 μM ([4]; dog, MDCK-MDR1, pH 7.4, with valspodar 1 μM, A-to-B, 5 μM test article + 1 μM valspodar): 53%
recovery at 120 min, 5 μM ([4]; dog, MDCK-MDR1, pH 7.4, with valspodar 1 μM, B-to-A, 5 μM test article + 1 μM valspodar): 118%
Papp A→B at 120 min, 5 μM ([4]; dog, MDCK-MDR1, pH 7.4, A-to-B, without valspodar): 0.09 ×10⁻⁶ cm/s
efflux ratio at 120 min, 5 μM ([4]; dog, MDCK-MDR1, pH 7.4, Papp (B-to-A)/Papp (A-to-B), without valspodar): 105
